Measurements taken from US12258327B2, “5-membered heteroaryl-containing aminopyridine compounds as EGFR inhibitors” (YUHAN CORPORATION, priority 2021, dated 2025).
Read-outs that look alike come from different tables or passages of the source.

Key:
EGFR wildtype (WT) = EGFR wildtype (WT) (Homo sapiens, UniProt P00533); assay: Biochemical EGFR kinase assay (Lance Ultra TR-FRET), wildtype
Method in brief: (§1)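 In this biochemical assay, phosphorylation after a one-hour room-temperature reaction was detected with europium-labelled anti-phosphopeptide antibody at 2 nM final concentration.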

EGFR L858R/T790M/C797S = EGFR L858R/T790M/C797S (Homo sapiens, UniProt P00533, C797S/L858R/T790M); assay: Biochemical EGFR kinase assay (Lance Ultra TR-FRET), triple mutant L858R/T790M/C797S
Method in brief: as §1

EGFR del19/C797S = EGFR del19/C797S (Homo sapiens, UniProt P00533, C797S/DEL746-750); assay: Biochemical EGFR kinase assay (Lance Ultra TR-FRET), double mutant del19/C797S
Method in brief: as §1

EGFR L858R/C797S = EGFR L858R/C797S (Homo sapiens, UniProt P00533, C797S/L858R); assay: Biochemical EGFR kinase assay (Lance Ultra TR-FRET), double mutant L858R/C797S
Method in brief: as §1

EGFR del19/T790M/C797S = EGFR del19/T790M/C797S (Homo sapiens, UniProt P00533, C797S/DEL746-750/T790M); assay: Biochemical EGFR kinase assay (Lance Ultra TR-FRET), triple mutant del19/T790M/C797S
Method in brief: as §1

[1] = IC50 WT (nM) 100 μM ATP, 100 μM ATP
[2] = Km ATP, read-out: IC50 WT (nM) Km ATP
[3] = IC50 L858R/T790M/C797S (nM) 100 μM ATP, 100 μM ATP
[4] = IC50 del19/C797S (nM) 100 μM ATP, 100 μM ATP
[5] = Km ATP, read-out: IC50 del19/C797S (nM) Km ATP
[6] = IC50 L858R/C797S (nM) 100 μM ATP, 100 μM ATP
[7] = Km ATP, read-out: IC50 L858R/C797S (nM) Km ATP
[8] = IC50 del19/T790M/C797S (nM) 100 μM ATP, 100 μM ATP
[9] = Km ATP, read-out: IC50 del19/T790M/C797S (nM) Km ATP
[10] = Km ATP, read-out: IC50 L858R/T790M/C797S (nM) Km ATP

Sequence of EGFR L858R/C797S (P00533 25-1210 C797S/L858R): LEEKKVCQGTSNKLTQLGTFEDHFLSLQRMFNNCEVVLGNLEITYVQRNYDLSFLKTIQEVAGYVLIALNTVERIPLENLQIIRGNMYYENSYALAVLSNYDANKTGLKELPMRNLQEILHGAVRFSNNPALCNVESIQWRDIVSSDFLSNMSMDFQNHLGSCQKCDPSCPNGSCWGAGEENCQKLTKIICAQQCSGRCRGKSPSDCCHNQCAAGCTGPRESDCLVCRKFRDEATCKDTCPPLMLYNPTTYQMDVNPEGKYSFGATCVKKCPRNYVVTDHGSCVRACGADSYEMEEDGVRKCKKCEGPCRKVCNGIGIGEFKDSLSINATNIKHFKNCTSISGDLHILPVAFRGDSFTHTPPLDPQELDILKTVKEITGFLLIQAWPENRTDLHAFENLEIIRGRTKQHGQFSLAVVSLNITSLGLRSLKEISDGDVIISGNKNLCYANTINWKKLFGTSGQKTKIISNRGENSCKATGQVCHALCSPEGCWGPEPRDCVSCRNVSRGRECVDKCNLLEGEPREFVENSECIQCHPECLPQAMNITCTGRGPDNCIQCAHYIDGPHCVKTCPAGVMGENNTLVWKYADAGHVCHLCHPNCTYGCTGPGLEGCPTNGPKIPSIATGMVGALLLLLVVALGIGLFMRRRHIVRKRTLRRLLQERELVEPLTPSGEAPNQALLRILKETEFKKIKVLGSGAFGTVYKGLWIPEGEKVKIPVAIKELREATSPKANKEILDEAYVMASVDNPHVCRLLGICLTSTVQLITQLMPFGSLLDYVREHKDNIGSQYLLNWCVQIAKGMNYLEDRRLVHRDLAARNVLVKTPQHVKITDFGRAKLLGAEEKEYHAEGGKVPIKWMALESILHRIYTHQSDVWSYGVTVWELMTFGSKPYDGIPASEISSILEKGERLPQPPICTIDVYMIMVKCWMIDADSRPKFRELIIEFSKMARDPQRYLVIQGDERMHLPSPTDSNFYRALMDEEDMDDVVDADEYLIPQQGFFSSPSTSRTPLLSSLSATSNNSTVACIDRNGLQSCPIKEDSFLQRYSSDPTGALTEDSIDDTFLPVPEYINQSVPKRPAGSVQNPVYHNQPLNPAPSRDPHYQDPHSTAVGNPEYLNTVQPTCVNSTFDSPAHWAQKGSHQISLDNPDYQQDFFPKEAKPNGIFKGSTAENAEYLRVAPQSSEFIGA
Sequence of EGFR L858R/T790M/C797S (P00533 25-1210 T790M/C797S/L858R): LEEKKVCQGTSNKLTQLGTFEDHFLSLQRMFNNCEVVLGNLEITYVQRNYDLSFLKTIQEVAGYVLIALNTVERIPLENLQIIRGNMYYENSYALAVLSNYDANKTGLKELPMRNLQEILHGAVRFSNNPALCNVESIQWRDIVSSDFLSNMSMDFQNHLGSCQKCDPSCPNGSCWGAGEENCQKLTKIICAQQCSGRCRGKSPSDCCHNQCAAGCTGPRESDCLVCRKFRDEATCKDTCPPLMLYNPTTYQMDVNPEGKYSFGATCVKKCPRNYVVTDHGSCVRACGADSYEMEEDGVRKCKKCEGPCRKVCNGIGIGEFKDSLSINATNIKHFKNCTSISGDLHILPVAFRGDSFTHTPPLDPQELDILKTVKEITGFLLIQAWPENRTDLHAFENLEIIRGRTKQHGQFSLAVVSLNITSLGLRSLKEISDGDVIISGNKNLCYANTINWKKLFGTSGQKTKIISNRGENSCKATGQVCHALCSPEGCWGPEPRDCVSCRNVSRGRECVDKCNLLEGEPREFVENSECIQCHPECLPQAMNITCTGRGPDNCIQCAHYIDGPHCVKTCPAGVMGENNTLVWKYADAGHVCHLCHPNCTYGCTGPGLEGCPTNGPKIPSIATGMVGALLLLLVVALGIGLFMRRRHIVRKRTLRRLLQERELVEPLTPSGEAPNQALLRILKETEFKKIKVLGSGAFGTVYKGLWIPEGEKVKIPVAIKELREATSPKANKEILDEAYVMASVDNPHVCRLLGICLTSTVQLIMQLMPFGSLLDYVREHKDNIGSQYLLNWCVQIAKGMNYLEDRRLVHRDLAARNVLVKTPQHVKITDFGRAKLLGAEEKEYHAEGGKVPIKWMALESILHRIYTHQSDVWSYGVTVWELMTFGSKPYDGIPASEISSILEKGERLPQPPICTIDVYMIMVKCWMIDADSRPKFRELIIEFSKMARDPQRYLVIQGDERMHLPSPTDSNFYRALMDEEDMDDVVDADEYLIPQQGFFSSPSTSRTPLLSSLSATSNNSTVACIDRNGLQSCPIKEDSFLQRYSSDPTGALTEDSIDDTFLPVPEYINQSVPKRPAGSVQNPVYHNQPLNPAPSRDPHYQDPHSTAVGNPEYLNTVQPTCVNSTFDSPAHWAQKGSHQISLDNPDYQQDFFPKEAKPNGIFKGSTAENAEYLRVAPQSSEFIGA
Sequence of EGFR del19/T790M/C797S (P00533 with tags, fused parts or gaps DEL746-750/T790M/C797S): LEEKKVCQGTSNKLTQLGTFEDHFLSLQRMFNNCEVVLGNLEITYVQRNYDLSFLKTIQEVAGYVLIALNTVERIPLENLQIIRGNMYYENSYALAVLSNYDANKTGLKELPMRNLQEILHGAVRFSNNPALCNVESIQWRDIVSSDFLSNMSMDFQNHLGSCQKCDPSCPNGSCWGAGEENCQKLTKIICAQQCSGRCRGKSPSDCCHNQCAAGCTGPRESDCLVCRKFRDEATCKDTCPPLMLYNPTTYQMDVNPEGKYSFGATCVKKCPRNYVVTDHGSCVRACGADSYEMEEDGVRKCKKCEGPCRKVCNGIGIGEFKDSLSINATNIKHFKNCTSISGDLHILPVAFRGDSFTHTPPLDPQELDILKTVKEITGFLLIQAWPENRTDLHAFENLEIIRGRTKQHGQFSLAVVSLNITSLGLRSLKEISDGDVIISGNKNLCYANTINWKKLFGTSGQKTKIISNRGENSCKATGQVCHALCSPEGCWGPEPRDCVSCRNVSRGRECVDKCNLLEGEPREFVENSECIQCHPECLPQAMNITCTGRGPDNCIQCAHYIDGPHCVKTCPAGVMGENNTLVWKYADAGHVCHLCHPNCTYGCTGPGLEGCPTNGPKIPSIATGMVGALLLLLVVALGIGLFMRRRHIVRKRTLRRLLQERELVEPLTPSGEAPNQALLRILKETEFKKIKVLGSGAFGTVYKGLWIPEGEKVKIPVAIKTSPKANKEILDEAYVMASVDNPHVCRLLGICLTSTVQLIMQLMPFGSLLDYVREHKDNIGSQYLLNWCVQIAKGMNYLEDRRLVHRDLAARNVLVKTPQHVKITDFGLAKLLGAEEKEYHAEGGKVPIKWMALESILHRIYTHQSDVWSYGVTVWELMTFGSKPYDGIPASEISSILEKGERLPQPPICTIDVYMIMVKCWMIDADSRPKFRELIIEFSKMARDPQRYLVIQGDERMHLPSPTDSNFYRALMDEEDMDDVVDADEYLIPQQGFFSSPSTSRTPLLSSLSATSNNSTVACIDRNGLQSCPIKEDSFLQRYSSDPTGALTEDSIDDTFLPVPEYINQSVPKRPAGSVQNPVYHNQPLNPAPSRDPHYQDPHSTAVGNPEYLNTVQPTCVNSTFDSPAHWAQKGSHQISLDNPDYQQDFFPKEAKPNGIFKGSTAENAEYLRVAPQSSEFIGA
Sequence of EGFR del19/C797S (P00533 with tags, fused parts or gaps DEL746-750/C797S): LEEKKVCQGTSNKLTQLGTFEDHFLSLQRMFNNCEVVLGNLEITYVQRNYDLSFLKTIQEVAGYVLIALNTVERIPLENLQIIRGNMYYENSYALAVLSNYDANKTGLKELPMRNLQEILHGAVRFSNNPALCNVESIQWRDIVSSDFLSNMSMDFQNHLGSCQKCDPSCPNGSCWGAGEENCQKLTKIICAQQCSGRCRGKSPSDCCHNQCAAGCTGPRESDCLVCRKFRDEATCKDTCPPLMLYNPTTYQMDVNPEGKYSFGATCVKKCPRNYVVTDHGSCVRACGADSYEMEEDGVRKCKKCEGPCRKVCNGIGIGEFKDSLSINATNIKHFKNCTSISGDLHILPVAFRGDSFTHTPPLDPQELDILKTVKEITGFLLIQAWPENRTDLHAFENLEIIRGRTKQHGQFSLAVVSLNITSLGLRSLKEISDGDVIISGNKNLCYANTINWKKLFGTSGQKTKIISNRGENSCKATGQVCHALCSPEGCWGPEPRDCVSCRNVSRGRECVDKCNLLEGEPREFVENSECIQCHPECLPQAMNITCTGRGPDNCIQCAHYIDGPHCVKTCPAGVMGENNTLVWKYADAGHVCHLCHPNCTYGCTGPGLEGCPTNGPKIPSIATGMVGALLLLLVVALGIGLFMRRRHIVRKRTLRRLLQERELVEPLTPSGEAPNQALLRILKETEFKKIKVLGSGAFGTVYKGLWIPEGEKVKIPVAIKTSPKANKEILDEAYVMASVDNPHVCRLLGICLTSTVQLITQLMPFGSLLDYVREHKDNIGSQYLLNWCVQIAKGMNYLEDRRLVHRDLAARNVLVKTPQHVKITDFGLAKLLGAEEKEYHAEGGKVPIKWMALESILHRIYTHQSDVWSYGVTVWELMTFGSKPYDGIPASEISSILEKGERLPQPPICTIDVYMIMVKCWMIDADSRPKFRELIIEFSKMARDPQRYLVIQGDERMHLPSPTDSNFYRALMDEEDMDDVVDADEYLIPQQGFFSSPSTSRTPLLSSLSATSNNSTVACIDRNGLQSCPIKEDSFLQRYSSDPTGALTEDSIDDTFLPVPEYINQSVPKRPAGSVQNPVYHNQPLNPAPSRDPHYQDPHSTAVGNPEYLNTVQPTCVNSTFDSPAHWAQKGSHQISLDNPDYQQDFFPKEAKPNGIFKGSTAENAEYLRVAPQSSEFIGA

SMILES | IC50 (EGFR wildtype (WT); [1]) [nM] | IC50 (EGFR wildtype (WT); [2]) [nM] | IC50 (EGFR L858R/T790M/C797S; [3]) [nM] | IC50 (EGFR del19/C797S; [4]) [nM] | IC50 (EGFR del19/C797S; [5]) [nM] | IC50 (EGFR L858R/C797S; [6]) [nM] | IC50 (EGFR L858R/C797S; [7]) [nM] | IC50 (EGFR del19/T790M/C797S; [8]) [nM] | IC50 (EGFR del19/T790M/C797S; [9]) [nM] | IC50 (EGFR L858R/T790M/C797S; [10]) [nM] | IC50 (EGFR wildtype (WT); Km ATP, read-out: IC50 WT, Km ATP) [nM] | IC50 (EGFR L858R/T790M/C797S; Km ATP, read-out: IC50 L858R/T790M/C797S, Km ATP) [nM] | IC50 (EGFR del19/C797S; Km ATP, read-out: IC50 del19/C797S, Km ATP) [nM] | IC50 (EGFR L858R/C797S; Km ATP, read-out: IC50 L858R/C797S, Km ATP) [nM] | IC50 (EGFR del19/T790M/C797S; Km ATP, read-out: IC50 del19/T790M/C797S, Km ATP) [nM] | IC50 (EGFR wildtype (WT); read-out: IC50 WT (nM) 100 μM ATP, 100 μM ATP) [nM] | IC50 (EGFR L858R/T790M/C797S; read-out: IC50 L858R/T790M/C797S (nM) 100 μM ATP, 100 μM ATP) [nM] | IC50 (EGFR del19/C797S; read-out: IC50 del19/C797S (nM) 100 μM ATP, 100 μM ATP) [nM] | IC50 (EGFR del19/T790M/C797S; read-out: IC50 del19/T790M/C797S (nM) 100 μM ATP, 100 μM ATP) [nM]
CC1(C)CC(Nc2cc(Nc3ccnc(-c4cnn(S(=O)(=O)C5CC5)c4)n3)ncc2-c2ccn(C(F)F)n2)CCC1O (stereo not shown) [Example 106, 4-((2-((2-(1-(Cyclopropylsulfonyl)-1H-pyrazol-4-yl)pyrimidin-4-yl)amino)-5-(1-(difluoromethyl)-1H-pyrazol-3-yl)pyridin-4-yl)amino)-2,2-dimethylcyclohexan-1-ol] | 9960 | 46.9 | 2.6 | 22.7 | 19.6 | 453 | 19 | 3.9 | 3.9 | – | – | – | – | – | – | – | – | – | –
C[C@]1(O)CC[C@@H](Nc2cc(Nc3ccnc(-c4ccc(F)nc4)n3)ncc2-c2ccn(C(F)F)n2)CC1 [Example 113, (1s,4s)-4-((5-(1-(Difluoromethyl)-1H-pyrazol-3-yl)-2-((2-(6-fluoropyridin-3-yl)pyrimidin-4-yl)amino)pyridin-4-yl)amino)-1-methylcyclohexan-1-ol] | > 10000 | > 10000 | 186 | 606 | – | 483 | – | 17.5 | – | – | – | – | – | – | – | – | – | – | –
C[C@]1(O)CC[C@@H](Nc2cc(Nc3ccnc(-c4cnn(S(=O)(=O)C5CC5)c4)n3)ncc2-c2cc3n(n2)CCCC3)CC1 [Example 59, (1s,4s)-4-((2-((2-(1-(Cyclopropylsulfonyl)-1H-pyrazol-4-yl)pyrimidin-4-yl)amino)-5-(4,5,6,7-tetrahydropyrazolo[1,5-a]pyridin-2-yl)pyridin-4-yl)amino)-1-methylcyclohexan-1-ol] | 368 | – | 0.6 | 1.9 | 1 | – | 0.6 | 0.8 | 0.7 | 0.3 | – | – | – | – | – | – | – | – | –
CN(C)[C@H]1CC[C@H](CNc2cc(Nc3ccnc(-c4cnn(S(=O)(=O)C5CC5)c4)n3)ncc2-c2ccn(C(F)F)n2)CC1 [Example 25, N^2-(2-(1-(Cyclopropylsulfonyl)-1H-pyrazol-4-yl)pyrimidin-4-yl)-5-(1-(difluoromethyl)-1H-pyrazol-3-yl)-N^4-(((1r,4r)-4-(dimethylamino)cyclohexyl)methyl)pyridine-2,4-diamine] | – | 2.7 | – | – | 0.2 | – | 0.3 | – | 0.1 | 0.02 | – | – | – | – | – | 2050 | 0.1 | 0.3 | 0.1
CC(C)(O)[C@H]1CC[C@@H](Nc2cc(Nc3ccnc(-c4cnn(S(=O)(=O)C5CC5)c4)n3)ncc2-c2cc3n(n2)CCCC3)CC1 [Example 61, 2-((1s,4s)-4-((2-((2-(1-(Cyclopropylsulfonyl)-1H-pyrazol-4-yl)pyrimidin-4-yl)amino)-5-(4,5,6,7-tetrahydropyrazolo[1,5-a]pyridin-2-yl)pyridin-4-yl)amino)cyclohexyl)propan-2-ol] | 2900 | 7.9 | 2.4 | 6.2 | 1.9 | 8.8 | 2.9 | 4.3 | 2 | 0.8 | – | – | – | – | – | – | – | – | –
CO[C@H]1CCN(c2nccc(Nc3cc(N[C@H]4CC[C@@](C)(O)CC4)c(-c4ccn(C(F)F)n4)cn3)n2)C[C@H]1F [Example 111, (1s,4s)-4-((5-(1-(Difluoromethyl)-1H-pyrazol-3-yl)-2-((2-((3R,4S)-3-fluoro-4-methoxypiperidin-1-yl)pyrimidin-4-yl)amino)pyridin-4-yl)amino)-1-methylcyclohexan-1-ol] | > 10000 | 53.7 | 0.2 | 253 | 86.8 | 67.2 | 19.7 | 1.6 | 1.4 | 0.1 | – | – | – | – | – | – | – | – | –
Cc1nn(CC(F)(F)F)cc1-c1cc(Nc2ncc(-c3ccn(C(F)F)n3)c(N[C@H]3CC[C@@](C)(O)CC3)n2)ccn1 [Example 368, (1s,4s)-4-((5-(1-(Difluoromethyl)-1H-pyrazol-3-yl)-2-((2-(3-methyl-1-(2,2,2-trifluoroethyl)-1H-pyrazol-4-yl)pyridin-4-yl)amino)pyrimidin-4-yl)amino)-1-methylcyclohexan-1-ol] | – | – | – | – | – | – | – | – | – | – | 33.6 | 0.9 | 12.6 | 10.7 | 1.9 | – | – | – | –

Second part, led by results:

IC50 (EGFR wildtype (WT); [1]) [nM] | IC50 (EGFR wildtype (WT); [2]) [nM] | IC50 (EGFR L858R/T790M/C797S; [3]) [nM] | IC50 (EGFR del19/C797S; [4]) [nM] | IC50 (EGFR del19/C797S; [5]) [nM] | IC50 (EGFR L858R/C797S; [6]) [nM] | IC50 (EGFR L858R/C797S; [7]) [nM] | IC50 (EGFR del19/T790M/C797S; [8]) [nM] | IC50 (EGFR del19/T790M/C797S; [9]) [nM] | IC50 (EGFR L858R/T790M/C797S; [10]) [nM] | IC50 (EGFR wildtype (WT); Km ATP, read-out: IC50 WT, Km ATP) [nM] | IC50 (EGFR L858R/T790M/C797S; Km ATP, read-out: IC50 L858R/T790M/C797S, Km ATP) [nM] | IC50 (EGFR del19/C797S; Km ATP, read-out: IC50 del19/C797S, Km ATP) [nM] | IC50 (EGFR L858R/C797S; Km ATP, read-out: IC50 L858R/C797S, Km ATP) [nM] | IC50 (EGFR del19/T790M/C797S; Km ATP, read-out: IC50 del19/T790M/C797S, Km ATP) [nM] | SMILES | IC50 (EGFR wildtype (WT); read-out: IC50 WT (nM) 100 μM ATP, 100 μM ATP) [nM] | IC50 (EGFR L858R/T790M/C797S; read-out: IC50 L858R/T790M/C797S (nM) 100 μM ATP, 100 μM ATP) [nM] | IC50 (EGFR del19/C797S; read-out: IC50 del19/C797S (nM) 100 μM ATP, 100 μM ATP) [nM] | IC50 (EGFR del19/T790M/C797S; read-out: IC50 del19/T790M/C797S (nM) 100 μM ATP, 100 μM ATP) [nM]
– | 58.2 | – | – | 31 | – | 24 | – | 0.8 | 0.4 | – | – | – | – | – | O=S(=O)(C1CC1)n1cc(-c2nccc(Nc3cc(NC4CC5(CC(O)C5)C4)c(-c4ccn(C(F)F)n4)cn3)n2)cn1 (stereo not shown) [Example 103, 6-((2-((2-(1-(Cyclopropylsulfonyl)-1H-pyrazol-4-yl)pyrimidin-4-yl)amino)-5-(1-(difluoromethyl)-1H-pyrazol-3-yl)pyridin-4-yl)amino)spiro[3.3]heptan-2-ol] | – | – | – | –
6970 | – | 0.2 | 0.8 | 0.4 | 6.6 | 0.1 | 0.2 | 0.5 | 0.1 | – | – | – | – | – | C[C@]1(O)CC[C@@H](Nc2cc(Nc3ccnc(-c4cnn(S(=O)(=O)C5CC5)c4)n3)ncc2-c2ccn(C3COC3)n2)CC1 [Example 292, (1s,4s)-4-((2-((2-(1-(Cyclopropylsulfonyl)-1H-pyrazol-4-yl)pyrimidin-4-yl)amino)-5-(1-(oxetan-3-yl)-1H-pyrazol-3-yl)pyridin-4-yl)amino)-1-methylcyclohexan-1-ol] | – | – | – | –
918 | 2.2 | 0.2 | 0.4 | 0.6 | 2.8 | 0.7 | 0.2 | 0.6 | 0.2 | – | – | – | – | – | Cn1ccc(-c2cnc(Nc3ccnc(-c4cnn(S(=O)(=O)C5CC5)c4)n3)cc2N[C@H]2CC[C@@H](NCC(F)F)CC2)n1 [Example 45, N^2-(2-(1-(Cyclopropylsulfonyl)-1H-pyrazol-4-yl)pyrimidin-4-yl)-N^4-((1s,4s)-4-((2,2-difluoroethyl)amino)cyclohexyl)-5-(1-methyl-1H-pyrazol-3-yl)pyridine-2,4-diamine] | – | – | – | –
– | 16.7 | – | – | 333 | – | 107 | – | 3.9 | 0.9 | – | – | – | – | – | CC(C)(CO)Cn1cc(-c2nccc(Nc3cc(N[C@H]4CC[C@@](C)(O)CC4)c(-c4ccn(C(F)F)n4)cn3)n2)cn1 [Example 173, (1s,4s)-4-((5-(1-(Difluoromethyl)-1H-pyrazol-3-yl)-2-((2-(1-(3-hydroxy-2,2-dimethylpropyl)-1H-pyrazol-4-yl)pyrimidin-4-yl)amino)pyridin-4-yl)amino)-1-methylcyclohexan-1-ol] | – | – | – | –
4690 | 5.2 | 0.5 | 1.1 | 0.5 | 2.3 | 0.8 | 0.4 | 0.3 | 0.1 | – | – | – | – | – | O=S(=O)(C1CC1)n1cc(-c2nccc(Nc3cc(NCC4CCC(NCCF)CC4)c(-c4ccn(C(F)F)n4)cn3)n2)cn1 (stereo not shown) [Example 132, N^2-(2-(1-(Cyclopropylsulfonyl)-1H-pyrazol-4-yl)pyrimidin-4-yl)-5-(1-(difluoromethyl)-1H-pyrazol-3-yl)-N^4-((4-((2-fluoroethyl)amino)cyclohexyl)methyl)pyridine-2,4-diamine] | – | – | – | –
– | 45.2 | – | – | 9.9 | – | 3.4 | – | 5.2 | 3.1 | – | – | – | – | – | O=S(=O)(C1CC1)n1cc(-c2nccc(Nc3cc(NC4CCC(F)CC4)c(-c4ccn(C(F)F)n4)cn3)n2)cn1 (stereo not shown) [Example 214, N^2-(2-(1-(Cyclopropylsulfonyl)-1H-pyrazol-4-yl)pyrimidin-4-yl)-5-(1-(difluoromethyl)-1H-pyrazol-3-yl)-N^4-(4-fluorocyclohexyl)pyridine-2,4-diamine] | – | – | – | –
– | 1210 | – | – | 370 | – | 135 | – | 8.8 | 4.8 | – | – | – | – | – | O=S(=O)(C1CC1)n1cc(-c2nccc(Nc3cc(N[C@H]4CC[C@@H](F)CC4)c(-c4nc(C(F)F)cs4)cn3)n2)cn1 [Example 164, N^2-(2-(1-(Cyclopropylsulfonyl)-1H-pyrazol-4-yl)pyrimidin-4-yl)-5-(4-(difluoromethyl)thiazol-2-yl)-N^4-((1s,4s)-4-fluorocyclohexyl)pyridine-2,4-diamine] | – | – | – | –
